The compounds below were run on P388 (assay: Cytotoxicity against mouse P388 cells).
Type: functional, cell-based
For `C=C(CCCC(C)(C)O)C(=O)CC[C@@]1(C)CC[C@@H]([C@H](C)C(=O)OC)OO1` [AIKUPIKOXIDE D], the IC50 was over 1 µg/mL. `CC(=O)CCCC(C)(C)C(=O)CC/C(C)=C/CC[C@@]1(C)CC[C@H]([C@H](C)C(=O)O)OO1` [AIKUPIKOXIDE A] gave an IC50 of over 1 µg/mL. `COC(=O)[C@@H](C)[C@@H]1CC[C@](C)(CCC(=O)C(C)(C)CCCC(C)=O)OO1` [DIACARPEROXIDE B] gave an IC50 of over 1 µg/mL. `CO[C@@]1(C)CCC(C(C)C)=C[C@@H]2[C@H]1CC[C@]2(C)O` showed an IC50 of over 1 µg/mL. `C=C1CCCC(C)(C)C1(O)CC[C@@]1(C)CC[C@@H]([C@H](C)C(=O)OC)OO1` (stereo not given in full) [AIKUPIKOXIDE B] showed an IC50 of over 1 µg/mL.

The compounds below were run on A549 (assay: Cytotoxicity against human A549 cells).
Type: functional, cell-based
Work on `C=C(CCCC(C)(C)O)C(=O)CC[C@@]1(C)CC[C@@H]([C@H](C)C(=O)OC)OO1` [AIKUPIKOXIDE D] yielded an IC50 of over 1 µg/mL. With `CC(=O)CCCC(C)(C)C(=O)CC/C(C)=C/CC[C@@]1(C)CC[C@H]([C@H](C)C(=O)O)OO1` [AIKUPIKOXIDE A] the IC50 was over 1 µg/mL. With `COC(=O)[C@@H](C)[C@@H]1CC[C@](C)(CCC(=O)C(C)(C)CCCC(C)=O)OO1` [DIACARPEROXIDE B] the IC50 was over 1 µg/mL. With `CO[C@@]1(C)CCC(C(C)C)=C[C@@H]2[C@H]1CC[C@]2(C)O` the IC50 was over 1 µg/mL. `C=C1CCCC(C)(C)C1(O)CC[C@@]1(C)CC[C@@H]([C@H](C)C(=O)OC)OO1` (stereo not given in full) [AIKUPIKOXIDE B] was tested, and the IC50 was over 1 µg/mL.

What follows are compounds tested on HT-29 (assay: Cytotoxicity against human HT-29 cells).
Type: functional, cell-based
`C=C(CCCC(C)(C)O)C(=O)CC[C@@]1(C)CC[C@@H]([C@H](C)C(=O)OC)OO1` [AIKUPIKOXIDE D] gave an IC50 of over 1 µg/mL. `CC(=O)CCCC(C)(C)C(=O)CC/C(C)=C/CC[C@@]1(C)CC[C@H]([C@H](C)C(=O)O)OO1` [AIKUPIKOXIDE A] showed an IC50 of over 1 µg/mL. With `COC(=O)[C@@H](C)[C@@H]1CC[C@](C)(CCC(=O)C(C)(C)CCCC(C)=O)OO1` [DIACARPEROXIDE B] the IC50 was over 1 µg/mL. For `CO[C@@]1(C)CCC(C(C)C)=C[C@@H]2[C@H]1CC[C@]2(C)O`, the IC50 was over 1 µg/mL. `C=C1CCCC(C)(C)C1(O)CC[C@@]1(C)CC[C@@H]([C@H](C)C(=O)OC)OO1` (stereo not given in full) [AIKUPIKOXIDE B] was tested, and the IC50 was over 1 µg/mL.

Source: ChEMBL document CHEMBL1156363, “Cytotoxic cyclic norterpene peroxides from a Red Sea sponge Diacarnus erythraenus” (J Nat Prod, 2001)
